Tests used:
[1] = system: HIV-1Ba-L; assay: Inhibition of virus replication in MAGI-CCR5 cells (β-galactosidase reporter); assay type: cell-based; conditions: HIV-1Ba-L in MAGI-CCR5 cells; for IC50: 48 hours, β-galactosidase reporter expression, read-out: IC50
Procedure: (§1) The anti-viral activity of dihydropyrimidines was shown by inhibition of virus replication in MAGI-CCR5 cells. MAGI-CCR5 cells are derived from HeLa-CD4-LTR-β-galactosidase cells. The cells have been engineered to express high levels of CD4 and CCR5 and contain one copy of the HIV-1 LTR promoter driving expression of the β-galactosidase gene upon HIV-1 Tat transactivation. On the day preceding the assay, the cells were plated at 1.0×10^4 cells per well and maintained at 37° C. and 5% CO2 in a humidified incubator. Total cell count and viability was visually assessed using a hemacytometer and trypan blue exclusion.
Compounds were evaluated at six concentrations (triplicate wells/concentration). On the day of assay setup, compound dilutions were prepared at two-times (2×) the final concentrations. Media was decanted and wells were replenished with 50 μl of 2× compounds, followed by the addition of 50 μl of diluted virus. Identical uninfected assays were prepared for parallel cytotoxicity testing.
Evaluation of Dihydropyrimidines vs. HIV-1Ba-L in MAGI-CCR5 Cells

[2] = Cytotoxicity by MTS staining in uninfected MAGI-CCR5 cells; assay type: cell-based; conditions: human, read-out: TC50
Procedure: as §1, with “exclusion. Compounds were evaluated at six concentrations (triplicate wells/concentration). On the day of assay setup, compound dilutions were prepared at two-times (2×) the final concentrations. Media was decanted and wells were replenished with 50 μl of 2× compounds, followed by the addition of 50 μl of diluted virus. Identical uninfected assays were prepared for parallel cytotoxicity testing.” for “exclusion.”

[3] = system: HIV-1Ba-L; assay: HIV-1Ba-L replication in PBMCs (supernatant RT end-point); conditions: HIV-1Ba-L in PBMCs, seven days, RT end-point
Procedure: Evaluation of Dihydropyrimidines vs. HIV-1Ba-L in Peripheral Blood Mononuclear Cells (PBMCs)
Cultures of pooled phytohemagglutinin stimulated peripheral blood mononuclear cells (PBMC) were seeded into a 96-well plate at plating density of 5×10^4 cells/well. Compounds were serially diluted into media in ½-log increments using a high test of […] and […] of each concentration (nine total concentrations). Cells were infected with HIV strains HIV-1Ba-L and NL4-3 at an MOI=0.1. The PBMCs were cultured for seven days in an humidified incubator maintained at 37° C., 5% CO2 atmosphere. At the assay end-point, the supernatant was collected and analyzed for reverse transcriptase activity. For the RT assay, tritiated thymidine triphosphate (3H-TTP, 80 Ci/mmol) was diluted 1:1 dH2O:Ethanol at 1 mCi/ml. Poly rA:oligo dT template:primer was prepared as a stock solution by combining 150 μl poly rA (20 mg/ml) with 0.5 mL oligo dT (20 units/ml) and 5.35 ml sterile dH2O followed by aliquoting (1.0 ml) and storage at −20° C. The RT reaction buffer contained of 125 ml 1.0 M EGTA, 125 ml dH2O, 125 ml 20% Triton X100, 50 ml 1.0 M Tris (pH 7.4), 50 ml 1.0 M DTT, and 40 ml 1.0 M MgCl2. The final reaction mixture was prepared by combining 1 part 3H-TTP, 4 parts dH2O, 2.5 parts poly rA:oligo dT stock and 2.5 parts reaction buffer. To each well, ten microliters of the reaction mixture and 15 μl of virus containing supernatant were added. The plates were incubated at 37° C. for 60 minutes. Following incubation, the reaction volume was spotted onto DE81 filter-mats, washed 5 times for 5 minutes each in a 5% sodium phosphate buffer or 2×SSC. […] were washed 2 times for 1 minute each in distilled water, 2 times for 1 minute each in 70% ethanol, and then dried. Incorporated radioactivity (counts per minute, CPM) was quantified using standard liquid scintillation techniques.

| Molecule | TI (TC50/IC50) [1] | IC50 ([1]; Human immunodeficiency virus 1) | CC50 at 48 h [2] | IC50 [1] | IC50 [3] |
| --- | --- | --- | --- | --- | --- |
| COc1ccc(-c2csc(C3=C(C)NC(=O)NC3c3ccc(Cl)nc3)n2)cc1 (centres unmarked) [Example 41] | D (D < 10.0) | 5 to 100 µM | 50 to 100 µM |  |  |
| COc1ccc(-c2csc(C3=C(C)NC(=O)NC3c3cccc(C(F)(F)F)c3)n2)cc1 (centres unmarked) [Example 45] | D (D < 10.0) | > 100 µM | ≥ 100 µM |  |  |
| COc1ccc(-c2csc(C3=C(C)NC(=O)NC3c3cccc(O)c3)n2)cc1 (centres unmarked) [Example 46] | D (D < 10.0) | 5 to 100 µM | ≥ 100 µM |  |  |
| CC1=C(c2nc(-c3ccc(C#N)cc3)cs2)C(c2ccc(F)cc2)NC(=O)N1 (centres unmarked) [Example 49] | C (C < 50.0 to 10.0) | 1 to 5 µM | ≥ 100 µM |  |  |
| CC1=C(c2nc(-c3ccc(C#N)cc3)cs2)C(c2cccc(Cl)c2)NC(=O)N1 (centres unmarked) [Example 51] | C (C < 50.0 to 10.0) | 5 to 100 µM | ≥ 100 µM |  |  |
| CC1=C(c2nc(-c3ccc(C#N)cc3)cs2)C(c2ccc(OCc3ccccc3)cc2)NC(=O)N1 (centres unmarked) [Example 52] | C (C < 50.0 to 10.0) | 1 to 5 µM | ≥ 100 µM |  |  |
| CC1=C(c2nc(-c3ccc(C#N)cc3)cs2)C(c2cc(F)cc(F)c2)NC(=O)N1 (centres unmarked) [Example 53] | C (C < 50.0 to 10.0) | 1 to 5 µM | ≥ 100 µM |  |  |
| CC1=C(c2nc(-c3ccc(C#N)cc3)cs2)C(c2ccc(N(C)C)cc2)NC(=O)N1 (centres unmarked) [Example 54] | C (C < 50.0 to 10.0) | 5 to 100 µM | 50 to 100 µM |  |  |
| CC1=C(c2nc(-c3ccc(C#N)cc3)cs2)C(c2ccc([N+](=O)[O-])cc2)NC(=O)N1 (centres unmarked) [Example 55] | C (C < 50.0 to 10.0) | 5 to 100 µM | ≥ 100 µM |  |  |
| CC1=C(c2nc(-c3ccc(C#N)cc3)cs2)C(c2ccc(F)c(C#N)c2)NC(=O)N1 (centres unmarked) [Example 56] | C (C < 50.0 to 10.0) | 5 to 100 µM | ≥ 100 µM |  |  |
| CC1=C(c2nc(-c3ccc(C#N)cc3)cs2)C(c2ccc(C#N)c(F)c2)NC(=O)N1 (centres unmarked) [Example 57] | C (C < 50.0 to 10.0) | 5 to 100 µM | ≥ 100 µM |  |  |
| CC1=C(c2nc(-c3ccc(C#N)cc3)cs2)C(c2ccc(-c3ccccc3)cc2)NC(=O)N1 (centres unmarked) [Example 58] | C (C < 50.0 to 10.0) | 1 to 5 µM | ≥ 100 µM |  |  |
| CC1=C(c2nc(-c3ccc(C#N)cc3)cs2)C(c2ccc(F)c([N+](=O)[O-])c2)NC(=O)N1 (centres unmarked) [Example 60] | C (C < 50.0 to 10.0) | 5 to 100 µM | ≥ 100 µM |  |  |
| CC1=C(c2nc(-c3ccc(C#N)cc3)cs2)C(c2ccc(Cl)c(OC(F)(F)F)c2)NC(=O)N1 (centres unmarked) [Example 61] | D (D < 10.0) | 5 to 100 µM | ≥ 100 µM |  |  |
| CC1=C(c2nc(-c3ccc(C#N)cc3)cs2)C(c2cccc(OC(F)(F)F)c2)NC(=O)N1 (centres unmarked) [Example 62] | D (D < 10.0) | 5 to 100 µM | ≥ 100 µM |  |  |
| CC1=C(c2nc(-c3ccc(C#N)cc3)cs2)C(c2ccc(OC(F)(F)F)cc2)NC(=O)N1 (centres unmarked) [Example 63] | D (D < 10.0) | 5 to 100 µM | ≥ 100 µM |  |  |
| COc1cccc(C2NC(=O)NC(C)=C2c2nc(-c3ccc(C#N)cc3)cs2)c1 (centres unmarked) [Example 65] | C (C < 50.0 to 10.0) | 1 to 5 µM | ≥ 100 µM |  |  |
| CC1=C(c2nc(-c3cccc(C#N)c3)cs2)C(c2cccc(O)c2)NC(=O)N1 (centres unmarked) [Example 66] | D (D < 10.0) | 5 to 100 µM | 50 to 100 µM |  |  |
| Maraviroc [reference compound] |  |  |  | 0.0006 µM | 0.009 µM |
